{"source": "patent US20240317735A1", "about": "“HYDROISOQUINOLINE OR HYDRONAPHTHYRIDINE COMPOUNDS FOR THE TREATMENT OF AUTOIMMUNE DISEASE” (Hoffmann-La Roche Inc., priority 2020, published 2024)", "key": {"TLR9": {"biological_target": "T1, TLR9 (Homo sapiens, UniProt Q9NR96)", "T1 sequence (Q9NR96 26-1032)": "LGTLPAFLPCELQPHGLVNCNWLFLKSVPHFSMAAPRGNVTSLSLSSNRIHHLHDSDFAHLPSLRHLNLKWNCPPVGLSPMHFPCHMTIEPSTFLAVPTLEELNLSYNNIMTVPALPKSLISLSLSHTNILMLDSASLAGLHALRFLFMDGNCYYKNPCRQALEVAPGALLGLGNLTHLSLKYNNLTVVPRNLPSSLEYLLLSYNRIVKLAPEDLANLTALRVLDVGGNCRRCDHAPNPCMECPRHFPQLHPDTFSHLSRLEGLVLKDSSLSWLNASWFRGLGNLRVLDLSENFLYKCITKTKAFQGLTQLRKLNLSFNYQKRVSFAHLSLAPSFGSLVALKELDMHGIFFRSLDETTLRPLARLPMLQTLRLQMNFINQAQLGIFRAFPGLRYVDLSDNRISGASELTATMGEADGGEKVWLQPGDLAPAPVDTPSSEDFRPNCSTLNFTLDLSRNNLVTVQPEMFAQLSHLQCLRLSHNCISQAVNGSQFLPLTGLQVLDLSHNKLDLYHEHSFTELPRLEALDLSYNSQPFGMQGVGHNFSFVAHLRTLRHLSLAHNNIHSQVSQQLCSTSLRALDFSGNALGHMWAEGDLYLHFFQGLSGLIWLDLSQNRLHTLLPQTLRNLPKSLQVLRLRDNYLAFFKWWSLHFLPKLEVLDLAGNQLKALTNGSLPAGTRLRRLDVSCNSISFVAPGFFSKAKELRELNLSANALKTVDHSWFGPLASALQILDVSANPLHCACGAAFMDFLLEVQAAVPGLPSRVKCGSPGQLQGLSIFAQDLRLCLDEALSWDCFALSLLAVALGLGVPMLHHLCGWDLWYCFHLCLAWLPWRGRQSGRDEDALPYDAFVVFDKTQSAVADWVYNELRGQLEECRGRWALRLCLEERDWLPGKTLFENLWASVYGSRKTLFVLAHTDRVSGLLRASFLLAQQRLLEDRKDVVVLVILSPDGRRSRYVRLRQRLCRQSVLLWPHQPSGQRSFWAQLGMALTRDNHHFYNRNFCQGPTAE", "test": "Human PBMC cell-based assay (CpG ODN 2216 stimulation)", "design": "These cells express TLR7, TLR8, or TLR9, and therefore are natural responders to respective ligand stimulation; endogenous in cells; host or cells: human PBMC from healthy donor whole blood", "details": "CpG ODN 2216 at 1 μM, overnight, read-out: hPBMC/TLR9 IC50", "source_text": "Unlike the HEK reporter cell lines, human peripheral blood mononuclear cell (PBMC) represents primary human immune cells in blood mainly consisting of lymphocytes, monocytes, and dendritic cells. These cells express TLR7, TLR8, or TLR9, and therefore are natural responders to respective ligand stimulation. Upon activation of these TLRs, PBMCs secrete similar cytokines and chemokines in vitro and in vivo, and therefore the in vitro potency of a TLR7/8/9 antagonist in human PBMC is readily translatable to its pharmacodynamics response in vivo.\nHuman peripheral blood mononuclear cells (PBMC) were isolated from freshly-drawn lithium-heparinized (Lithium Heparin Plus blood Collection tube, BD Vacutainer®) healthy donor whole blood by density gradient (Ficoll-Paque™ PLUS, GE Healthcare life Sciences). Briefly, 50 mL of blood was diluted with 25 mL PBS (without Ca^2+, Mg^2+) in a 50 mL conical tube with porous barrier (Leucosep tube, Greiner bio-one), where 15.5 mL Ficoll-Paque was under laid after spinning. Tubes were centrifuged for 20 minutes at 800×g (1946 rpm) with the brake in the off position, and PBMC were collected from the buffy coat. Cells were then washed twice in PBS, and red blood cells were lysed by suspension in 2 mL (Red Blood Cell Lysis Buffer, Alfa Aesar) for 5-10 minutes at room temperature. After a final wash in PBS, PBMC were resuspended at a final concentration of 2×10^6 cells/mL in RPMI-1640 media with GlutaMAX™ (Gibco) supplemented with 10% Fetal Bovine Serum (Sigma) and plated at 150 μL/well (3×10^5 cells/well) in tissue culture treated round bottom 96-well plates (Corning Incorporated). Antagonist compounds (compounds of this invention) solubilized and serial diluted in 100% DMSO were added in duplicate to cells to yield a final concentration of 1% DMSO (v/v). PBMC were incubated with antagonist compounds for 30 minutes at 37° C., 5% CO2 before adding various TLR agonist reagents in 48 μL complete media per well as follows (final concentrations indicated): CpG ODN 2216 (InvivoGen) at 1 μM for TLR9, ORN 06/LyoVec (InvivoGen) at […] for TLR8 and R848 (InvivoGen) at 1p g/mL for TLR7 and TLR8. PBMC were incubated overnight at 37° C. with 5% CO2. Cell culture supernatants were collected, and levels of various human cytokines were assessed by Luminex assay (ProcartaPlex™ Multiplex Immunoassay, Invitrogen) or ELISA procedure according to the manufacturer's recommended protocol (eBioscience, ThermoFisher Scientific). Viability of the cells was also checked with Cell Viability Assay (CellTiter Glo®Luminescent Cell Viability Assay, Promega)."}, "hERG channel": {"biological_target": "T2, hERG channel (Homo sapiens, UniProt Q12809)", "T2 construct": "expressed in transfected cells; host or cells: CHO (CHOhERG)", "T2 sequence (Q12809 whole entry)": "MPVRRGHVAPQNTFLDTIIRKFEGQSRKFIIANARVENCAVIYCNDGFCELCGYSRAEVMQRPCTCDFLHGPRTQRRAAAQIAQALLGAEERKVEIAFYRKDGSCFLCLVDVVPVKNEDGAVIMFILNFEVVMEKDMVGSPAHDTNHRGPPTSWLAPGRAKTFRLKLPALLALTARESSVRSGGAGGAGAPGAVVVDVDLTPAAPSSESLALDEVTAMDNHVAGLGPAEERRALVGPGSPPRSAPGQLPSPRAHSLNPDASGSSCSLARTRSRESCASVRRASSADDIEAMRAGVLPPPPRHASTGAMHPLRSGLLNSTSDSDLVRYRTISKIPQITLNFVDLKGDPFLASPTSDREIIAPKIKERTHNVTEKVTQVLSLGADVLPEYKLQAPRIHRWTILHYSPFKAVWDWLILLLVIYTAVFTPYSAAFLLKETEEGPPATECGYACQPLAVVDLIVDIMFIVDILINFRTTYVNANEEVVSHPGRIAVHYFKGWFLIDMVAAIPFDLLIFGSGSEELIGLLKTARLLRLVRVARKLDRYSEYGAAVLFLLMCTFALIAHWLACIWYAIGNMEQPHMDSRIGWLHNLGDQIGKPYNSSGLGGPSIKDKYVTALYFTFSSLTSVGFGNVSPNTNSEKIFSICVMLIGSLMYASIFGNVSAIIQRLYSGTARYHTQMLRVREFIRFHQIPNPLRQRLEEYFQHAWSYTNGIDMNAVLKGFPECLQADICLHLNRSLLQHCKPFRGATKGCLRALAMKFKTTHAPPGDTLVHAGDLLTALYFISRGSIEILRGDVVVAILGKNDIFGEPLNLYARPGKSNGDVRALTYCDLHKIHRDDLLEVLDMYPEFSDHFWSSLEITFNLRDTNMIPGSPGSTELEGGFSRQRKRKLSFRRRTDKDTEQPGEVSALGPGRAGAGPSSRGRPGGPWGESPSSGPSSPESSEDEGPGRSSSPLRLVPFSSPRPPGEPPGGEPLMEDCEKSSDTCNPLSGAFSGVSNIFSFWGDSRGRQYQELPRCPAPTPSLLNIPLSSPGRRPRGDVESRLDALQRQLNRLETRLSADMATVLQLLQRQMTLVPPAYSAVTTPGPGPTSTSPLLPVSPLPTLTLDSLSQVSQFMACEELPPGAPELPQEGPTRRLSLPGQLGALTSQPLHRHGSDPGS", "test": "hERG channel inhibition assay (patch-clamp, CHOhERG cells)", "type": "cell-based", "details": "for IC50 / IC20: CHOhERG cells, whole-cell patch-clamp; for IC20: human, CHO cells stably expressing hERG (CHOhERG); for hERG IC20/TLR7 IC50 / hERG IC20/TLR8 IC50 / hERG IC20/TLR9 IC50: safety ratio; for hERG IC20/TLR7 IC50: hERG IC20 over HEK/hTLR7 IC50; for hERG IC20/TLR8 IC50: hERG IC20 over HEK/hTLR8 IC50; for hERG IC20/TLR9 IC50: hERG IC20 over HEK/hTLR9 IC50", "experimental": "The hERG K^+ channels were cloned in humans and stably expressed in a CHO (Chinese hamster ovary) cell line. CHOhERG cells were used for patch-clamp (voltage-clamp, whole-cell) experiments. Cells were stimulated by a voltage pattern to activate hERG channels and conduct IKhERG currents (rapid delayed outward rectifier potassium current of the hERG channel). After the cells were stabilized for a few minutes, the amplitude and kinetics of IKhERG were recorded at a stimulation frequency of 0.1 Hz (6 bpm). Thereafter, the test compound was added to the preparation at increasing concentrations. For each concentration, an attempt was made to reach a steady-state effect, usually, this was achieved within 3-10 min at which time the next highest concentration was applied. The amplitude and kinetics of IKhERG are recorded in each concentration of the drug which were compared to the control values (taken as 100%). (references: Redfern W S, Carlsson L, Davis A S, Lynch W G, MacKenzie I, Palethorpe S, Siegl P K, Strang I, Sullivan A T, Wallis R, Camm A J, Hammond T G. 2003; Relationships between preclinical cardiac electrophysiology, clinical QT interval prolongation and torsade de pointes for a broad range of drugs: evidence for a provisional safety margin in drug development. Cardiovasc. Res. 58:32-45, Sanguinetti MC, Tristani-Firouzi M. 2006; hERG potassium channels and cardiac arrhythmia. Nature 440:463-469, Webster R, Leishman D, Walker D. 2002; Towards a drug concentration effect relationship for QT prolongation and torsades de pointes. Curr. Opin. Drug Discov. Devel. 5:116-26)."}}, "data": [{"smiles": "C[C@H]1CN(c2ccnc3c2cnn3C)Cc2ccc(OC[C@H]3CNCCN3)cc21", "note": "[Example 18, (4R)-4-methyl-2-(1-methylpyrazolo[3,4-b]pyridin-4-yl)-6-[[(2R)-piperazin-2-yl]methoxy]-3,4-dihydro-1H-isoquinoline]", "values": [{"measurement": "IC50", "setting": "TLR9", "result": 0.365, "unit": "µM"}, {"measurement": "IC50", "setting": "hERG channel", "result": "> 20", "unit": "µM"}, {"measurement": "IC20", "setting": "hERG channel", "result": "> 10", "unit": "µM"}, {"measurement": "hERG IC20/TLR7 IC50", "setting": "hERG channel", "result": ">1250.0"}, {"measurement": "hERG IC20/TLR8 IC50", "setting": "hERG channel", "result": ">2500.0"}, {"measurement": "hERG IC20/TLR9 IC50", "setting": "hERG channel", "result": ">90.1"}]}, {"smiles": "C[C@H]1CN(c2ccnc3c2cnn3C)Cc2ccc(N3CCNCC3)cc21", "note": "[Example 1, (4R)-4-methyl-2-(1-methylpyrazolo[3,4-b]pyridin-4-yl)-6-piperazin-1-yl-3,4-dihydro-1H-isoquinoline]", "values": [{"measurement": "IC50", "setting": "TLR9", "result": 0.396, "unit": "µM"}, {"measurement": "IC50", "setting": "hERG channel", "result": "> 20", "unit": "µM"}, {"measurement": "IC20", "setting": "hERG channel", "result": 6.4, "unit": "µM"}, {"measurement": "hERG IC20/TLR7 IC50", "setting": "hERG channel", "result": 2133.3}, {"measurement": "hERG IC20/TLR8 IC50", "setting": "hERG channel", "result": 3200.0}, {"measurement": "hERG IC20/TLR9 IC50", "setting": "hERG channel", "result": 32.3}]}, {"smiles": "C[C@H]1CN(c2ccnc3c2cnn3C)Cc2ccc(OC[C@@H]3CNCCN3)cc21", "note": "[Example 19, (4R)-4-methyl-2-(1-methylpyrazolo[3,4-b]pyridin-4-yl)-6-[[(2S)-piperazin-2-yl]methoxy]-3,4-dihydro-1H-isoquinoline]", "values": [{"measurement": "IC50", "setting": "TLR9", "result": 0.395, "unit": "µM"}, {"measurement": "IC50", "setting": "hERG channel", "result": "> 20", "unit": "µM"}, {"measurement": "IC20", "setting": "hERG channel", "result": 6.3, "unit": "µM"}, {"measurement": "hERG IC20/TLR7 IC50", "setting": "hERG channel", "result": 787.5}, {"measurement": "hERG IC20/TLR8 IC50", "setting": "hERG channel", "result": 1575.0}, {"measurement": "hERG IC20/TLR9 IC50", "setting": "hERG channel", "result": 62.4}]}]}
